# According to patent US20060079453A1, “Hla binding peptides and their uses” (priority 2002, published 2006):
# Read-outs that look alike come from different tables or passages of the source. No end group written: not given here.
# How the values were obtained:
# Assay in all cases: biochemical
# Type in all cases: binding
# HLA-DR DRB1*1101 (DR11) = HLA-DR DRB1*1101 (DR11) (Homo sapiens, UniProt P01903+P01911, A100R/A169T/A87E/I96F/K41T/L162R/M171V/P40S/Q125H/Q178H/Q39Y/Q99D/R42S/S66Y/T262R/V115G/W38E)
# HLA-DR DRB4*0101 (DR53) = HLA-DR DRB4*0101 (DR53) (Homo sapiens, UniProt P01903+P13762, G164S)
# HLA-DR DRB1*0701 (DR7) = HLA-DR DRB1*0701 (DR7) (Homo sapiens, UniProt P01903+P01911, A100R/A102G/A103Q/D57E/D86V/E43K/F76Y/K127E/L162R/M171V/P40G/Q125H/Q99D/R33Q/R42Y/R54Q/S133A/S66F/T210M/V115G/Y107V/Y59L/Y89S)
# HLA-DR DRB1*1501 (DR15) = HLA-DR DRB1*1501 (DR15) (Homo sapiens, UniProt P01903+P01911)
# HLA-DR DRB5*0101 (DR51) = HLA-DR DRB5*0101 (DR51) (Homo sapiens, UniProt P01903+Q30154)
# HLA-DR DRB1*0401 (DR4) = HLA-DR DRB1*0401 (DR4) (Homo sapiens, UniProt P01903+P01911, A100K/A169T/F76Y/I96L/K127E/L162R/M171V/N62H/P40V/Q125Y/R42H/S133A/S149N/S66Y/V115G/V209L/W38E)
# HLA-DR DRB1*0301 (DR3) = HLA-DR DRB1*0301 (DR3) (Homo sapiens, UniProt P01903+P01911, A100K/A102G/A103R/A169T/F55Y/I96L/K41T/L162R/M171V/P40S/Q125H/Q178H/Q39Y/R42S/S66N/T106N/T262R/W38E/Y61H)
# HLA-DR DRB1*0101 (DR1) = HLA-DR DRB1*0101 (DR1) (Homo sapiens, UniProt P01903+P01911, A100R/D57E/F55L/F60I/F76Y/I96L/L162R/M171V/P40L/Q125E/R42F/V115G/Y59C)
# HLA-DR DRB1*1302 (DR13) = HLA-DR DRB1*1302 (DR13) (Homo sapiens, UniProt P01903+P01911, A100E/A169T/K41T/L162R/M171V/P40S/Q125H/Q178H/Q39Y/Q99D/R42S/S66N/T262R/V115G/W38E/Y61H)
# HLA-DR DRB1*1302 (DR13), sequence (P01903 26-254 limits assumed, other chains not shown): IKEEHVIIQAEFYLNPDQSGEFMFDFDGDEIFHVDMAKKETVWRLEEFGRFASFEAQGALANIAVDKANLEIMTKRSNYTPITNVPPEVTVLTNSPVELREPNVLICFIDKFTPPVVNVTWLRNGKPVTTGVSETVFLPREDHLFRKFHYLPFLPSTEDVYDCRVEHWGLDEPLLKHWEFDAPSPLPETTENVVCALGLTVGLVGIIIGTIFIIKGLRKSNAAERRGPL
# HLA-DR DRB1*0301 (DR3), sequence (P01903 26-254 limits assumed, other chains not shown): as above
# HLA-DR DRB1*1101 (DR11), sequence (P01903 26-254 limits assumed, other chains not shown): as above
compound,measurement,setting,value
CC[C@H](C)[C@H](NC(=O)[C@H](C)NC(=O)[C@H](CCC(N)=O)NC(=O)[C@H](CCCNC(=N)N)NC(=O)[C@H](CC(C)C)NC(=O)[C@H](C)NC(=O)[C@@H](NC(=O)[C@H](Cc1c[nH]cn1)NC(=O)[C@H](Cc1c[nH]cn1)NC(=O)[C@@H]1CCCN1)[C@@H](C)O)C(=O)N[C@@H](CC(C)C)C(=O)N[C@@H](CO)C(=O)N[C@@H](Cc1c[nH]c2ccccc12)C(=O)NCC(=O)N[C@@H](CCC(=O)O)C(=O)N[C@@H](CC(C)C)C(=O)N[C@@H](CCSC)C(=O)N[C@H](C(=O)N[C@@H](CC(C)C)C(=O)N[C@@H](C)C(=O)O)[C@@H](C)O,IC50,HLA-DR DRB1*1101 (DR11),3120 nM
same,IC50,HLA-DR DRB4*0101 (DR53),48 nM
same,IC50,HLA-DR DRB1*0701 (DR7),14400 nM
same,IC50,HLA-DR DRB1*1501 (DR15),5.3 nM
(16A)RQTTLKAAA,IC50,HLA-DR DRB1*1101 (DR11); read-out: DRB1 *1101,77 nM
same,IC50,HLA-DR DRB5*0101 (DR51); read-out: DRB5 *0101,4000 nM
same,IC50,HLA-DR DRB1*0401 (DR4); read-out: DRB1 *0401,1.3 nM
AAAKAAAAAAYAA,IC50,HLA-DR DRB1*0301 (DR3),> 900000 nM
same,IC50,HLA-DR DRB1*0401 (DR4); DRB1 *0401,229 nM
AALAAAAAAKAAA,IC50,HLA-DR DRB1*1101 (DR11); read-out: DRB1 *1101,2220 nM
same,IC50,HLA-DR DRB5*0101 (DR51); read-out: DRB5 *0101,67 nM
same,IC50,HLA-DR DRB1*0101 (DR1); read-out: DRB1 *0101,1.9 nM
same,IC50,HLA-DR DRB1*0401 (DR4); read-out: DRB1 *0401,12 nM
ALLKNYGLLYCFRIW,IC50,HLA-DR DRB1*1101 (DR11); read-out: DRB1 *1101,> 15400 nM
same,IC50,HLA-DR DRB1*1302 (DR13); read-out: DRBI *1302,10 nM
same,IC50,HLA-DR DRB1*1501 (DR15); read-out: DRBI *1501,17 nM
ALVRQGLAKVA,IC50,HLA-DR DRB1*1101 (DR11); DRB1 *1101,≥ 200000 nM
same,IC50,HLA-DR DRB5*0101 (DR51); DRB5 *0101,> 10000 nM
same,IC50,HLA-DR DRB1*0401 (DR4); DRB1 *0401,190 nM
Ac-ASQKRPSQRHGSKYLATAST,IC50,HLA-DR DRB1*0301 (DR3),> 900000 nM
Ac-NPTKHKWEAAHVAEQLAA,IC50,HLA-DR DRB1*1101 (DR11); DRB1 *1101,> 33300 nM
same,IC50,HLA-DR DRB1*1302 (DR13); DRBI *1302,> 10000 nM
same,IC50,HLA-DR DRB1*1501 (DR15); DRBI *1501,200000 nM
CIVYRDCIAYAACHK,IC50,HLA-DR DRB1*1101 (DR11); read-out: DRB1 *1101,35600 nM
same,IC50,HLA-DR DRB5*0101 (DR51); read-out: DRB5 *0101,1910 nM
same,IC50,HLA-DR DRB1*0401 (DR4); read-out: DRB1 *0401,928 nM
same,IC50,HLA-DR DRB1*0701 (DR7); read-out: DRB1 *0701,> 14600 nM
DFVFADLRIVYRDGN,IC50,HLA-DR DRB1*1101 (DR11); read-out: DRB1 *1101,6960 nM
same,IC50,HLA-DR DRB5*0101 (DR51); read-out: DRB5 *0101,8430 nM
same,IC50,HLA-DR DRB4*0101 (DR53); read-out: DRB4 *0101,6710 nM
DHRQLQLSISSCLQQLSLLM,IC50,HLA-DR DRB1*1101 (DR11); DRB1 *1101,> 98500 nM
same,IC50,HLA-DR DRB1*0301 (DR3),42700 nM
same,IC50,HLA-DR DRB5*0101 (DR51); DRB5 *0101,63800 nM
same,IC50,HLA-DR DRB1*1302 (DR13); DRBI *1302,69 nM
same,IC50,HLA-DR DRB4*0101 (DR53); DRB4 *0101,532 nM
same,IC50,HLA-DR DRB1*0101 (DR1); DRB1 *0101,1360 nM
same,IC50,HLA-DR DRB1*0701 (DR7); DRB1 *0701,736 nM
same,IC50,HLA-DR DRB1*1501 (DR15); DRBI *1501,67 nM
DPNANPNVDPNANPNVNANPNANPNANP(X4)QKWAAVVVPS,IC50,HLA-DR DRB1*1101 (DR11); read-out: DRB1 *1101,> 12500 nM
same,IC50,HLA-DR DRB5*0101 (DR51); read-out: DRB5 *0101,> 2900 nM
same,IC50,HLA-DR DRB4*0101 (DR53); read-out: DRB4 *0101,> 72500 nM
same,IC50,HLA-DR DRB1*1501 (DR15); read-out: DRBI *1501,> 7580 nM
DRTLMSAMTNLAALE,IC50,HLA-DR DRB1*0301 (DR3); read-out: DRB1 *0301,64300 nM
same,IC50,HLA-DR DRB1*0101 (DR1); read-out: DRB1 *0101,97 nM
same,IC50,HLA-DR DRB1*0401 (DR4); read-out: DRB1 *0401,13 nM
same,IC50,HLA-DR DRB1*0701 (DR7); read-out: DRB1 *0701,383 nM
DRTLMSAMTNLAALF,IC50,HLA-DR DRB1*1101 (DR11); read-out: DRB1 *1101,2370 nM
same,IC50,HLA-DR DRB5*0101 (DR51); read-out: DRB5 *0101,26100 nM
same,IC50,HLA-DR DRB4*0101 (DR53); read-out: DRB4 *0101,57 nM
EEDIEIIFIQEEEY,IC50,HLA-DR DRB1*1101 (DR11); read-out: DRB1 *1101,> 20600 nM
same,IC50,HLA-DR DRB5*0101 (DR51); read-out: DRB5 *0101,46100 nM
